Measurements from patent US20240299559A1, “COMPOUNDS THAT MEDIATE PROTEIN DEGRADATION AND METHODS OF USE THEREOF” (Monte Rosa Therapeutics, Inc., priority 2021, published 2024).
pKi: −log10 of the molar value.

Assays:
[1] = target: CRBN-DDB1 (Homo sapiens, UniProt Q96SW2); assay: Compound binding to CRBN by HTRF assay; conditions: CRBN-DDB1 2.5 nM, Cy5-Thalidomide 100 nM probe; Ki from geometric mean of IC50 by Cheng-Prustoff transformation
Experimental: Compound activity was monitored in a Homogenous Time-Resolved Fluorescence (HTRF) assay using 1-[5-({2-[2-(2-{[2-(2,6-dioxopiperidin-3-yl)-1,3-dioxo-2,3-dihydro-1H-isoindol-4-yl]oxy}acetamido)ethoxy]ethyl}carbamoyl)pentyl]-3,3-dimethyl-2-[(1E,3E)-5-[(2E)-1,3,3-trimethyl-5-sulfo-2,3-dihydro-1H-indol-2-ylidene]penta-1,3-dien-1-yl]-3H-indol-1-ium-5-sulfonate as a fluorescent probe. Biochemical assays were conducted in Greiner white 384 well HiBase plates (Cat. No 784075-25) in 10 μL total volume. A one pot detection solution of CRBN-DDB1 (2.5 nM), Anti-His Terbium Cryptate Gold (1×, PerkinElmer Cat. #: 61HI2TLB), and Cy5-Thalidomide (100 nM, Tenova Cat.: T52461) was prepared in 20 mM HEPES, 20 mM NaCl, 0.2 mM TCEP, 0.2 mM EDTA, and 0.005% Tween20 was dispensed to each assay plate. Compounds were stored in dry, ambient temperatures at 10 mM. A 10-point, 1:3 dilution series was prepared from 10 mM stock concentrations in Echo-compatible LDV plates. 10 nL of each compound dilution series was dispensed into assays wells using an Echo 650 (Labcyte inc. USA). 10 nL of 10 mM Lenalidomide was transferred into the active-control wells for the assay and 10 nL of DMSO was transferred into the neutral-control wells. The assay was then allowed to incubate for 30 min at ambient temperature after transferring compound. Plate measurements were taken on a Pherastar FSX (BMG Labtech, Germany) using the HTRF Red filter (Ex. 337 nm, em1:620 nm, em2:665 nm) (Flashes: 50, Integration time: 60-400 us, Z-height: 10 mm, Ratio-multipler: 10,000). The HTRF signal was then subsequently normalized to the neutral and active controls. Analysis and IC50 values were derived using KNIME analytics (KNIME Zurich) transformation and fitting within Collaborative Drug Discovery (Collaborative Drug Discovery USA). Ki was derived from the geometric mean of the IC50 values using the Cheng-Prustoff transformation.

[2] = target: T1, CDK2 (Homo sapiens, UniProt P24941); assay: CDK2 HiBiT assay (degradation, Dmax); type: cell-based; conditions: HEK293 clonal lines with CRISPR KI HiBiT tag on CDK2, stably expressing LgBiT; 24 hours incubation
T1 construct: HEK293 clonal lines with CRISPR KI HiBiT tag on CDK2 proteins; host or cells: HEK293 clonal line with CRISPR knock-in HiBiT on CDK2, stably expressing LgBiT
Experimental: HEK293 clonal lines with CRISPR KI HiBiT tag on CDK2 proteins and stably expressing LgBiT protein were obtained from Promega (Madison, WI). Cells were plated at 5000 cells per well using Multiflo (BioTek) in 384-well white solid bottom plates (Corning, 3570BC) in 25 ul volume in DMEM media (DMEM, high glucose, HEPES, no phenol red (ThermoFisher Scientific, 21063029)) containing 10% FBS (Corning, 35-075-CV), 1% Penicillin/Streptomycin (ThermoFisher Scientific, 15140-122). Cells were incubated for 16 hours at 37° C., 5% CO2. 75 nL of a compound at 30 μM were dosed into the plate using an Echo® 650 liquid handler (Labcyte). Cells were incubated at 37° C., 5% CO2 for 24 hours. 5 ul of HiBiT Lysis Reagent (Promega, N3030) is added using Combi Multidrop (ThermoFisher Scientific), plates are incubated for 15′ at 37° C., 5% CO2 and then signal was read on a Pherastar FSX using “LUM plus” optic module.
Analysis was performed in Scinamic (Scinamic, Cambridge, MA). Luminescence response (R) was calculated by the formula: response=100*(S−N)/(P−N) where S is the signal of the well, N and P the mean negative and positive control values respectively of the same plate. The luminescence response was then fitted in Scinamic using a 3-parameter agonist logistic fit (hillslope=1, EC50>0, top/bottom unconstrained).

Sequence of CRBN-DDB1 (Q96SW2 whole entry): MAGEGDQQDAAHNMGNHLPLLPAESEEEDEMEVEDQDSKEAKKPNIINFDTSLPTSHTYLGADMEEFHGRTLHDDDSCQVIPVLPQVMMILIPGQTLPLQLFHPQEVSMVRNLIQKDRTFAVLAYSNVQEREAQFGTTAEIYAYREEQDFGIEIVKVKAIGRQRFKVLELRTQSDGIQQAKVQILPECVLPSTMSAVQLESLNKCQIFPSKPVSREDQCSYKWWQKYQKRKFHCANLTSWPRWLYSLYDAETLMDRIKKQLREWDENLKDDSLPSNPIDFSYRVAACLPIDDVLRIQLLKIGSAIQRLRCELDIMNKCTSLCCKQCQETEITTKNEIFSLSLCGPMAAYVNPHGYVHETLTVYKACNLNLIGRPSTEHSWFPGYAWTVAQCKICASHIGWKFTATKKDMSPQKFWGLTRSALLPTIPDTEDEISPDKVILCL
Sequence of CRBN-DDB1 (Q16531 whole entry partner): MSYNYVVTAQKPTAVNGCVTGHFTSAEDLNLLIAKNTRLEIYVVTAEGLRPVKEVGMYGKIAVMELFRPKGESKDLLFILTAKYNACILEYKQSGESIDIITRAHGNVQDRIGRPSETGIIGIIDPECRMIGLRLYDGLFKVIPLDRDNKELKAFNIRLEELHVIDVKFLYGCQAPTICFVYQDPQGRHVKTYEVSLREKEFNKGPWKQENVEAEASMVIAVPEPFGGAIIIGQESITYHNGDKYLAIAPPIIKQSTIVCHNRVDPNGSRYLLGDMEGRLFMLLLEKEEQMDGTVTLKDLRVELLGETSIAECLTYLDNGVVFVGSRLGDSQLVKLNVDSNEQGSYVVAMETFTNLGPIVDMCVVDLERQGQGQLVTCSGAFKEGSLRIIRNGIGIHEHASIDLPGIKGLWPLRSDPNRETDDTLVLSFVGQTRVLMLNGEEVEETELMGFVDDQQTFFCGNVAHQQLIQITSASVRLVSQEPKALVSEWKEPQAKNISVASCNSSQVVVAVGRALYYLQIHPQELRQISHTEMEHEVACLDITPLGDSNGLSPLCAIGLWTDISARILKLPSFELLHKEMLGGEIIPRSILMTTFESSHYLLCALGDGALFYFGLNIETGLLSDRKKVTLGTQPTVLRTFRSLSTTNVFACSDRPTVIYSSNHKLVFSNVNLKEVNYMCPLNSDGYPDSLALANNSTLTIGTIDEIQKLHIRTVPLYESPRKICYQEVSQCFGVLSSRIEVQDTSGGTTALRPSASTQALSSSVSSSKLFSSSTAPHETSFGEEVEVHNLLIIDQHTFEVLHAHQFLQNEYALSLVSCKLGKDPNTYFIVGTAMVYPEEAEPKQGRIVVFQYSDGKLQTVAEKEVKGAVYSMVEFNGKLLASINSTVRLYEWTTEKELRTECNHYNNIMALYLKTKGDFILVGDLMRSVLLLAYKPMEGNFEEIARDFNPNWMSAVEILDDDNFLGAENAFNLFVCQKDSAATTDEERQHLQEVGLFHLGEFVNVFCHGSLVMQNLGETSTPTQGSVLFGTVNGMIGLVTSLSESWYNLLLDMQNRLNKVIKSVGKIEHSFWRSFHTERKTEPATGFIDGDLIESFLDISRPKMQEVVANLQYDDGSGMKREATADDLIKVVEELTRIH

pKi [1]	Dmax [2] [%]	SMILES
6.00 to 7.00	≤ 10	O=C1CCC(N2Cc3ccc(CNC(=O)OCc4ccc(CN5CCCCC5)cc4)cc3C2=O)C(=O)N1 (stereo not shown) [Compound 53, {4-[(piperidin-1-yl)methyl]phenyl}methyl N-{[2-(2,6-dioxopiperidin-3-yl)-3-oxo-2,3-dihydro-1H-isoindol-5-yl]methyl}carbamate]
6.00 to 7.00	10 to 50	O=C1CCC(N2Cc3ccc(CNC(=O)OCc4cccc(OCC(F)(F)F)c4)cc3C2=O)C(=O)N1 (stereo not shown) [Compound 54, [3-(2,2,2-trifluoroethoxy)phenyl]methyl N-{[2-(2,6-dioxopiperidin-3-yl)-3-oxo-2,3-dihydro-1H-isoindol-5-yl]methyl}carbamate]
≥ 7.00	≤ 10	O=C1CCC(N2Cc3ccc(CNC(=O)OCc4ccc(CN5CCOCC5)cc4)cc3C2=O)C(=O)N1 (stereo not shown) [Compound 55, {4-[(morpholin-4-yl)methyl]phenyl}methyl N-{[2-(2,6-dioxopiperidin-3-yl)-3-oxo-2,3-dihydro-1H-isoindol-5-yl]methyl}carbamate]
≥ 7.00	10 to 50	O=C1CCC(N2Cc3ccc(CNC(=O)OCc4cccc(SC(F)(F)F)c4)cc3C2=O)C(=O)N1 (stereo not shown) [Compound 56, {3-[(trifluoromethyl)sulfanyl]phenyl}methyl N-{[2-(2,6-dioxopiperidin-3-yl)-3-oxo-2,3-dihydro-1H-isoindol-5-yl]methyl}carbamate]
≥ 7.00	10 to 50	O=C1CCC(N2Cc3ccc(CNC(=O)OCc4ccc(OC(F)(F)F)cc4F)cc3C2=O)C(=O)N1 (stereo not shown) [Compound 57, [2-fluoro-4-(trifluoromethoxy)phenyl]methyl N-{[2-(2,6-dioxopiperidin-3-yl)-3-oxo-2,3-dihydro-1H-isoindol-5-yl]methyl}carbamate]

The remaining lines, values behind:

SMILES	pKi [1]	Dmax [2] [%]
COc1ccc(COC(=O)NCc2ccc3c(c2)C(=O)N(C2CCC(=O)NC2=O)C3)cc1C(C)C (stereo not shown) [Compound 47, [4-methoxy-3-(propan-2-yl)phenyl]methyl N-{[2-(2,6-dioxopiperidin-3-yl)-3-oxo-2,3-dihydro-1H-isoindol-5-yl]methyl}carbamate]	≥ 7.00	10 to 50
O=C1CCC(N2Cc3ccc(CNC(=O)OCc4ccc(C5(F)COC5)cc4)cc3C2=O)C(=O)N1 (stereo not shown) [Compound 48, [4-(3-fluorooxetan-3-yl)phenyl]methyl N-{[2-(2,6-dioxopiperidin-3-yl)-3-oxo-2,3-dihydro-1H-isoindol-5-yl]methyl}carbamate]	≥ 7.00	10 to 50
CSc1ccc(COC(=O)NCc2ccc3c(c2)C(=O)N(C2CCC(=O)NC2=O)C3)cc1Cl (stereo not shown) [Compound 49, [3-chloro-4-(methylsulfanyl)phenyl]methyl N-{[2-(2,6-dioxopiperidin-3-yl)-3-oxo-2,3-dihydro-1H-isoindol-5-yl]methyl}carbamate]	≥ 7.00	10 to 50
O=C1CCC(N2Cc3ccc(CNC(=O)OCc4ccc(C#CC(F)(F)F)cc4)cc3C2=O)C(=O)N1 (stereo not shown) [Compound 50, [4-(3,3,3-trifluoroprop-1-yn-1-yl)phenyl]methyl N-{[2-(2,6-dioxopiperidin-3-yl)-3-oxo-2,3-dihydro-1H-isoindol-5-yl]methyl}carbamate]	6.00 to 7.00	10 to 50
O=C1CCC(N2Cc3ccc(CNC(=O)OCc4cccc(-c5ccc(F)cc5)c4)cc3C2=O)C(=O)N1 (stereo not shown) [Compound 51, {4′-fluoro-[1,1′-biphenyl]-3-yl}methyl N-{[2-(2,6-dioxopiperidin-3-yl)-3-oxo-2,3-dihydro-1H-isoindol-5-yl]methyl}carbamate]	6.00 to 7.00	10 to 50
Cc1ncsc1-c1ccc(COC(=O)NCc2ccc3c(c2)C(=O)N(C2CCC(=O)NC2=O)C3)cc1 (stereo not shown) [Compound 52, [4-(4-methyl-1,3-thiazol-5-yl)phenyl]methyl N-{[2-(2,6-dioxopiperidin-3-yl)-3-oxo-2,3-dihydro-1H-isoindol-5-yl]methyl}carbamate]	≥ 7.00	10 to 50
